Values of other authors as cited in US20180271949A1, “THERAPEUTIC TREATMENT FOR NEUROTROPHIC KERATOPATHY” (priority 2017, published 2018).

Key:
[1] = tested on: sub-basal plexus corneal nerves; settings: topical; diabetic mice; Chen 2013
corneal abrasions = settings: topical, diabetic rats
[2] = tested on: cultured sheets of corneal epithelial cells; settings: Shanley 2004
decubitus ulcers = settings: topical; Van Ort 1976
[3] = tested on: experimentally-induced superficial skin wounds; settings: topical; diabetic and non-diabetic individuals; Greenway 1999
corneal ulcers = settings: systemic administration; humans; Aynsley 1945
[4] = tested on: corneal epithelium wound healing; settings: with substance-P; several pre-clinical studies; Nishida 2009

Substance | loss of sub-basal plexus corneal nerves [1] | corneal sensation (corneal abrasions; Zagon 2007) | wound healing after corneal abrasions (corneal abrasions; Zagon 2007, Klocek 2009) | cell migration and closure of artificial wounds [2] | healing of decubitus ulcers (decubitus ulcers) | healing of experimentally-induced superficial skin wounds [3] | healing of corneal ulcers (corneal ulcers) | promotion of corneal epithelium wound healing [4]
insulin: insulin, topical, systemic or added in vitro, as used in cited literature studies | slow the loss | improves corneal sensation | improves wound healing | promoted cell migration and closure of artificial wounds | improve healing | improve healing | improved healing | 
IGF-1: Insulin-like growth factor-1, modulator of corneal wound healing |  |  |  |  |  |  |  | act synergistically with substance-P
